According to publication PMC6859627, “Growth of the facultative chemolithoautotroph Ralstonia eutropha on organic waste materials: growth characteristics, redox regulation and hydrogenase activity” (Microbial Cell Factories, 2019):

What was measured:
[1] = biological target: T1, FOF1-ATPase (FOF1-ATP synthase) (Cupriavidus necator, UniProt Q0K5M2); experiment: phosphate release from ATP by membrane vesicles; assay type: biochemical; conditions: 5 mM ATP, 1 mM MgSO4, 50 mM Tris-HCl pH 7.0, 30 °C; 10 min preincubation; FN-grown cells; overall ATPase activity of vesicles
T1 construct: gene atpE; native complex in membrane vesicles (osmotic lysis), not purified; FOF1 share defined by DCCD sensitivity; with ATP synthase subunit a; ATP synthase subunit b; ATP synthase subunit alpha; ATP synthase subunit beta; ATP synthase gamma chain; ATP synthase subunit delta; ATP synthase epsilon chain

[2] = biological target: T2, SH (cytoplasmic, soluble hydrogenase) (Cupriavidus necator, UniProt P22317); experiment: H2-dependent NAD+ reduction at […] nm, soluble extract; assay type: biochemical; conditions: 1 mM NAD+, H2-saturated 50 mM Tris/HCl pH 8.0, anaerobic, 30 °C
T2 construct: gene hoxF; native enzyme in soluble protein fraction of cell extract; hetero-hexamer HoxHYFUI2; with NAD-reducing hydrogenase HoxS subunit beta; NAD-reducing hydrogenase HoxS subunit gamma; NAD-reducing hydrogenase HoxS subunit delta; NAD-reducing hydrogenase subunit HoxI
T2 sequence (P22317 whole entry): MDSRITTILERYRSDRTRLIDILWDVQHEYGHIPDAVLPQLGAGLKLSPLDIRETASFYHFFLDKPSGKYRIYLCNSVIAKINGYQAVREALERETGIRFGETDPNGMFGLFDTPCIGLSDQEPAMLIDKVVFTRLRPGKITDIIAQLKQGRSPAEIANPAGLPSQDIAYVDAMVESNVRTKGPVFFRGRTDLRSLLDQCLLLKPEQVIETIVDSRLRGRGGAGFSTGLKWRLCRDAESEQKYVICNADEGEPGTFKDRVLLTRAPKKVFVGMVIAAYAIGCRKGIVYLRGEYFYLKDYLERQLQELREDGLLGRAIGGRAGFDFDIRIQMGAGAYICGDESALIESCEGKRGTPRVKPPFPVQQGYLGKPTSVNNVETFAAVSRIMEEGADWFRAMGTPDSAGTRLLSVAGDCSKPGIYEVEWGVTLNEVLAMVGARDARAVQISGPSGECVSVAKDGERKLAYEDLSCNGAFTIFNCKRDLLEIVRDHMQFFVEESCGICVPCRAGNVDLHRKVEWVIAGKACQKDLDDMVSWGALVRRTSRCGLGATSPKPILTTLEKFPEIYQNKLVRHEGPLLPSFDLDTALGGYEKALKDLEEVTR
T2 sequence (P22318 2-234 partner): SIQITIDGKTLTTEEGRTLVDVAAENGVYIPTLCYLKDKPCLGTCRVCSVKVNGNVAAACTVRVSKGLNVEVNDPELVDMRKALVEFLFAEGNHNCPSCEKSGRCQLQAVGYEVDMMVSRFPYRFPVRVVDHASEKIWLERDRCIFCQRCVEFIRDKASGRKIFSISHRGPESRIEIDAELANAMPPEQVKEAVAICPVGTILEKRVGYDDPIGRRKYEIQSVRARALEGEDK
T2 sequence (P22319 whole entry partner): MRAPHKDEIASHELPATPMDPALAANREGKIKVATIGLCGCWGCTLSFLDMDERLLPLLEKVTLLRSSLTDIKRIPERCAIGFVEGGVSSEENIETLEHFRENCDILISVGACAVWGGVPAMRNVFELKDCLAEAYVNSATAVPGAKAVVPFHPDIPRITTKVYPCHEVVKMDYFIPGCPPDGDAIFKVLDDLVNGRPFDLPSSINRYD
T2 sequence (P22320 2-464 partner): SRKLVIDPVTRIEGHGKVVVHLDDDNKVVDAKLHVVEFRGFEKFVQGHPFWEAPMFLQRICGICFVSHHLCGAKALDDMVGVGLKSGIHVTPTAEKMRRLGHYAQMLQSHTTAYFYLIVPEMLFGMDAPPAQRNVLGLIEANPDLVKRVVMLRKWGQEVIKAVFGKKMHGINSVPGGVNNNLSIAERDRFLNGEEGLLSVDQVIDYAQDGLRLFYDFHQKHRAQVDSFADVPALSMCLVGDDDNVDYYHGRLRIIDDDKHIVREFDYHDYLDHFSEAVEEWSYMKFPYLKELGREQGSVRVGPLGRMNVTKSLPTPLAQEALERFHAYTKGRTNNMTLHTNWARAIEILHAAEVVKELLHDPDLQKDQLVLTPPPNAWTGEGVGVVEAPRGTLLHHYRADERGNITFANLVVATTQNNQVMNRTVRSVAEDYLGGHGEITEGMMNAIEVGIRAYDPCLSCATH

Structure (SMILES) | fold inhibition at 0.2 mM [1] | H2-dependent NAD+ reduction at 365 nm, soluble extract [2]
C(=NC1CCCCC1)=NC1CCCCC1 [DCCD, N,N′-dicyclohexylcarbodiimide] | ~ 2.3 fold | 
NC(=O)c1ccc[n+]([C@@H]2O[C@H](COP(=O)(O)OP(=O)(O)OC[C@H]3O[C@@H](n4cnc5c(N)ncnc54)[C@H](O)[C@@H]3O)[C@@H](O)[C@H]2O)c1 [NAD^+] |  | hydrogen-oxidizing activity of SH was measured in anaerobic cuvettes with NAD^+
